Measured values reported in ChEMBL document CHEMBL1157599, “Synthesis, in vitro and in vivo biological evaluation, docking studies, and structure--activity relationship (SAR) discussion of dipeptidyl boronic acid proteasome inhibitors composed of beta-amino acids” (J Med Chem, 2010).
One block for each compound: values may come before it.

Assays:
[1] = Inhibition of chymotrypsin-like activity of human 20S proteosome assessed as hydrolysis of fluorogenic Suc-Leu-Leu-Val-Tyr-AMC substrate
[2] = Tmax in Sprague-Dawley rat at 1 mg/kg, iv; assay type: ADME, organism-based; set-up: dose 1 mg/kg, route intravenous; conditions: in vivo
[3] = Cmax in Sprague-Dawley rat at 1 mg/kg, iv; assay type: ADME, organism-based; set-up: dose 1 mg/kg, route intravenous; conditions: in vivo
[4] = Mean residence time in Sprague-Dawley rat at 1 mg/kg, iv; assay type: ADME, organism-based; set-up: dose 1 mg/kg, route intravenous; conditions: in vivo
[5] = AUC (0 to t) in Sprague-Dawley rat at 1 mg/kg, iv; assay type: ADME, organism-based; set-up: dose 1 mg/kg, route intravenous; conditions: plasma
[6] = Terminal half life in Sprague-Dawley rat at 1 mg/kg, iv; assay type: ADME, organism-based; set-up: dose 1 mg/kg, route intravenous; conditions: in vivo, read-out: beta t1/2 (converted)
[7] = Volume of distribution in Sprague-Dawley rat at 1 mg/kg, iv; assay type: ADME, organism-based; set-up: dose 1 mg/kg, route intravenous; conditions: in vivo, read-out: Vz
[8] = Systemic clearance in Sprague-Dawley rat at 1 mg/kg, iv; assay type: ADME, organism-based; set-up: dose 1 mg/kg, route intravenous; conditions: in vivo
[9] = system: Rattus norvegicus; test: Toxicity in Sprague-Dawley rat assessed as toxic reactions at 1 mg/kg, iv; assay type: organism-based; set-up: dose 1 mg/kg, route intravenous; conditions: in vivo
[10] = system: Rattus norvegicus; test: Toxicity in Sprague-Dawley rat assessed as toxic reactions at 1 mg/kg, ig; assay type: organism-based; set-up: dose 1 mg/kg, route intragastric; conditions: in vivo, po
[11] = system: Rattus norvegicus; test: Toxicity in Sprague-Dawley rat assessed as side effects at 2 mg/kg, iv; assay type: organism-based; set-up: dose 2 mg/kg, route intravenous; conditions: in vivo
[12] = Cytotoxicity against human BCG823 cells after 72 hrs by MTT assay; assay type: functional, cell-based; conditions: BCG823, 72 h
[13] = system: NCI-H460; test: Cytotoxicity against human H460 cells after 72 hrs by MTT assay; assay type: functional, cell-based; conditions: NCI-H460, 72 h
[14] = system: BXPC-3; test: Cytotoxicity against human BxPC3 cells after 72 hrs by MTT assay; assay type: functional, cell-based; conditions: BXPC-3, 72 h
[15] = system: SW480; test: Cytotoxicity against human SW480 cells after 72 hrs by MTT assay; assay type: functional, cell-based; conditions: SW480, 72 h
[16] = system: A549; test: Cytotoxicity against human A549 cells after 72 hrs by MTT assay; assay type: functional, cell-based; conditions: A549, 72 h
[17] = system: PC-3; test: Cytotoxicity against human PC3 cells after 72 hrs by MTT assay; assay type: functional, cell-based; conditions: PC-3, 72 h
[18] = system: SK-OV-3; test: Cytotoxicity against human SKOV3 cells after 72 hrs by MTT assay; assay type: functional, cell-based; conditions: SK-OV-3, 72 h
[19] = system: HL-60; test: Cytotoxicity against human HL60 cells after 72 hrs by MTT assay; assay type: functional, cell-based; conditions: HL-60, 72 h
[20] = system: U-266; test: Cytotoxicity against human U266 cells after 72 hrs by MTT assay; assay type: functional, cell-based; conditions: U-266, 72 h
[21] = system: HepG2; test: cells; conditions: Homo sapiens, HepG2, 72 h
Description: Cytotoxicity against human HepG2 cells after 72 hrs by MTT assay

[22] = Toxicity against zebrafish embryo assessed as morphological changes at 10 umol after 24 hrs; set-up: species or system Danio rerio; conditions: in vivo
[23] = Toxicity against zebrafish embryo assessed as morphological changes at 1 umol after 24 hrs; set-up: species or system Danio rerio; conditions: in vivo
[24] = Toxicity against zebrafish embryo assessed as embryo death at 10 umol after 24 hrs; set-up: species or system Danio rerio; conditions: in vivo
[25] = Toxicity against zebrafish embryo assessed as cell death in tail at 1 umol after 24 hrs; set-up: species or system Danio rerio
[26] = Toxicity against zebrafish embryo assessed as cell death in embryo at 1 umol after 24 hrs; set-up: species or system Danio rerio
[27] = Tmax in Sprague-Dawley rat at 1 mg/kg, ig; assay type: ADME, organism-based; set-up: dose 1 mg/kg, route intragastric; conditions: in vivo, po
[28] = Cmax in Sprague-Dawley rat at 1 mg/kg, ig; assay type: ADME, organism-based; set-up: dose 1 mg/kg, route intragastric; conditions: in vivo, po
[29] = Mean residence time in Sprague-Dawley rat at 1 mg/kg, ig; assay type: ADME, organism-based; set-up: dose 1 mg/kg, route intragastric; conditions: in vivo, po
[30] = AUC (0 to t) in Sprague-Dawley rat at 1 mg/kg, ig; assay type: ADME, organism-based; set-up: dose 1 mg/kg, route intragastric; conditions: plasma, po
[31] = Terminal half life in Sprague-Dawley rat at 1 mg/kg, ig; assay type: ADME, organism-based; set-up: dose 1 mg/kg, route intragastric; conditions: in vivo, po, read-out: beta t1/2 (converted)
[32] = system: Rattus norvegicus; test: Volume of distribution in Sprague-Dawley rat at 1 mg/kg, ig; assay type: ADME, organism-based; set-up: dose 1 mg/kg, route intragastric; conditions: in vivo, po
[33] = Systemic clearance in Sprague-Dawley rat at 1 mg/kg, ig; assay type: ADME, organism-based; set-up: dose 1 mg/kg, route intragastric; conditions: in vivo, po
[34] = Oral bioavailability in Sprague-Dawley rat; assay type: ADME, organism-based; conditions: in vivo
[35] = system: Rattus norvegicus; test: Toxicity in Sprague-Dawley rat assessed as mortality at 1 mg/kg, iv after 10 hrs; assay type: organism-based; set-up: dose 1 mg/kg, route intravenous; conditions: in vivo
[36] = system: Rattus norvegicus; test: Toxicity in Sprague-Dawley rat assessed as mortality at 1 mg/kg, ig after 10 hrs; assay type: organism-based; set-up: dose 1 mg/kg, route intragastric; conditions: in vivo, po

Compound: COc1ccc(C(CC(=O)N[C@@H](CC(C)C)B(O)O)NC(=O)c2cnccn2)cc1 (stereo not given in full)
- IC50 [1]: 134 nM

Compound: COc1ccc(C(CC(=O)N[C@@H](CC(C)C)B(O)O)NC(=O)c2cccc3c2CCCC3)cc1 (stereo not given in full)
- IC50 [1]: 161 nM

Compound: CC(C)C[C@H](NC(=O)CC(NC(=O)c1cccnc1)c1ccc(Cl)cc1)B(O)O (stereo not given in full)
- IC50 [1]: 180 nM

Compound: O=C(CC(NC(=O)c1cnccn1)c1ccccc1)N[C@@H](Cc1ccccc1)B(O)O (stereo not given in full)
- IC50 [1]: 664 nM

Compound: COc1ccc([C@H](CC(=O)N[C@@H](CC(C)C)B(O)O)NC(=O)c2ccccc2)cc1
- Activity [22]: Non-toxic
- Activity [23]: Non-toxic
- IC50 [1]: 350 nM
- IC50 [12]: 76900 nM
- IC50 [13]: 25200 nM
- IC50 [14]: 2820 nM
- IC50 [15]: 1720 nM
- IC50 [16]: 3680 nM
- IC50 [17]: 1110 nM
- IC50 [18]: 14500 nM
- IC50 [19]: 700 nM
- IC50 [20]: 1280 nM
- IC50 [21]: 5130 nM

Compound: CC(C)C[C@H](NC(=O)[C@H](Cc1ccccc1)NC(=O)c1cnccn1)B(O)O [BORTEZOMIB]
- Activity [24]: Toxic
- Activity [25]: 28.5%
- Activity [26]: 52.4%
- Tmax [2]: 1.8 min
- Cmax [3]: 1080 ng/mL
- MRT [4]: 1.4 h
- AUC(0-t) [5]: 654 ng·h/mL
- half-life [6]: 2 h
- Vd [7]: 3.74 L/kg
- clearance [8]: 23.9 mL/min/kg
- Tmax [27]: 0.23 h
- Cmax [28]: 161 ng/mL
- MRT [29]: 7.69 h
- AUC(0-t) [30]: 303 ng·h/mL
- half-life [31]: 7.47 h
- Vz [32]: 29.791 L/kg
- CL/F [33]: 44.7 mL/min/kg
- bioavailability [34]: 46%
- Activity [35]: Toxic
- Activity [36]: Toxic
- IC50 [1]: 2.48 nM
- IC50 [12]: 3290 nM
- IC50 [13]: 780 nM
- IC50 [14]: 16.2 nM
- IC50 [15]: 6.1 nM
- IC50 [16]: 6.7 nM
- IC50 [17]: 7 nM
- IC50 [18]: 151 nM
- IC50 [19]: 7.1 nM
- IC50 [20]: 8.8 nM
- IC50 [21]: 7.5 nM

Compound: Cc1ccc(C(CC(=O)N[C@@H](CC(C)C)B(O)O)NC(=O)c2cccnc2)cc1 (stereo not given in full)
- IC50 [1]: 165 nM

Compound: CC(C)C[C@H](NC(=O)CC(NC(=O)c1cnccn1)c1ccc(Cl)cc1)B(O)O (stereo not given in full)
- IC50 [1]: 121 nM

Compound: Cc1ccc(C[C@H](NC(=O)CC(NC(=O)c2cnccn2)c2ccccc2)B(O)O)cc1 (stereo not given in full)
- IC50 [1]: 497 nM

Compound: CC(C)C[C@H](NC(=O)CC(NC(=O)c1cccnc1)c1ccccc1)B(O)O (stereo not given in full)
- IC50 [1]: 382 nM

Compound: CC(C)C[C@H](NC(=O)CC(NC(=O)c1cnccn1)c1ccccc1)B(O)O (stereo not given in full)
- IC50 [1]: 136 nM

Further compounds by falling IC50 [1], results first:

- IC50 [1]: 69.8 nM
Compound: Cc1ccc(C(CC(=O)N[C@@H](CC(C)C)B(O)O)NC(=O)c2cnccn2)cc1 (stereo not given in full)

- IC50 [1]: 40 nM
Compound: CC(C)C[C@H](NC(=O)CC(NC(=O)c1ccccc1)c1ccccc1)B(O)O (stereo not given in full)

- IC50 [1]: 35 nM
Compound: COc1ccc(C(CC(=O)N[C@@H](CC(C)C)B(O)O)NC(=O)c2cccnc2)cc1 (stereo not given in full)

- IC50 [1]: 30 nM
Compound: CC(C)C[C@H](NC(=O)CC(NC(=O)c1ccccc1)c1ccc(Cl)cc1)B(O)O (stereo not given in full)

- IC50 [1]: 14 nM
Compound: Cc1ccc(C(CC(=O)N[C@@H](CC(C)C)B(O)O)NC(=O)c2ccccc2)cc1 (stereo not given in full)

- IC50 [1]: 12.5 nM
- IC50 [21]: 5590 nM
Compound: COc1ccc(C(CC(=O)N[C@@H](CC(C)C)B(O)O)NC(=O)c2ccccc2)cc1 (stereo not given in full)
- IC50 [12]: 30900 nM
- IC50 [13]: 36000 nM
- IC50 [14]: 1500 nM
- IC50 [15]: 1080 nM
- IC50 [16]: 3450 nM
- IC50 [17]: 830 nM
- IC50 [18]: 8430 nM
- IC50 [19]: 1020 nM
- IC50 [20]: 2650 nM

- Tmax [2]: 1.8 min
- Cmax [3]: 2930 ng/mL
- MRT [4]: 2.8 h
- AUC(0-t) [5]: 933 ng·h/mL
- half-life [6]: 5.3 h
- Vd [7]: 8.45 L/kg
- clearance [8]: 18.8 mL/min/kg
- IC50 [1]: 9.6 nM
- IC50 [21]: 1880 nM
Compound: COc1ccc([C@@H](CC(=O)N[C@@H](CC(C)C)B(O)O)NC(=O)c2ccccc2)cc1
- Activity [9]: Non-toxic
- Activity [10]: Non-toxic
- Activity [11]: Non-toxic
- IC50 [12]: 74400 nM
- IC50 [13]: 14600 nM
- IC50 [14]: 380 nM
- IC50 [15]: 410 nM
- IC50 [16]: 830 nM
- IC50 [17]: 230 nM
- IC50 [18]: 3490 nM
- IC50 [19]: 140 nM
- IC50 [20]: 350 nM
